From patent US10512600B2, “RNA complexes that inhibit melanin production” (OliX Pharmaceuticals, Inc., priority 2015, dated 2019)
Where two headings read alike, the source gives them in different places. Oligonucleotides are written 5' to 3', each unit as a sugar letter and its base; * is a phosphorothioate linkage, no mark a phosphodiester; rarer units and linkages stand in square brackets, end groups in braces. Plain capitals give the bases only. {Chol} = cholesterol conjugate; m = 2'-O-methyl; r = 2'-OH (RNA)

Assays:
HaCaT cells [1] = assay: Cytotoxicity (LDH, CytoTox96) and cell viability (CCK-8) in HaCaT cells; conditions: 24 hours, LDH and CCK-8 assays, FIG. 6
Description: (§5) One day before treatment with cp-asiRNA(4)-1, 5.0×10^3MNT-1 cells or 1.0×10^4 HaCaT cells were seeded into 96 well plates. Immediately before treatment, the cells were washed with 1×DPBS buffer (Gibco), and then cultured in the presence of 1 μM or 3 μM of cp-asiRNATYR(4)-1 in OPTI-MEM buffer for 24 hours, at which point the cytotoxicity level was measured using a CytoTox96 Non-Radio Cytotoxicity assay (Promega) according to manufacturer's instructions. The media was then replaced with the serum-containing media and cell viability was measured using a cell counting kit-8 (Enzo) according to manufacturer's instructions.

tyrosinase protein [2] = assay: Western blot of tyrosinase protein expression in treated MNT-1 cells; assay type: cell-based, human
Description: (§1) MNT-1 cells were cultured in Minimum Essential Media (Welgene) containing 20% fetal bovine serum (Gibco), 100 μg/ml penicillin/streptomycin, 10% 200 mM HEPES (Welgene) and 10% Dulbecco's modified Eagle's medium (Welgene). One day prior to treatment, 6.5×10^4MNT-1 cells were seeded in 12-well plates.
(§2) After 72 hours of cp-asiTYR(4)-1 incubation, the level of tyrosinase protein expression was determined via western blot. Briefly, the treated MNT-1 cells were lysed with RIPA buffer (GE). Fifteen μg of the total protein extract were loaded onto a 12% SDS-PAGE gel and electrophoresed at 120 V. After electrophoresis, the proteins were transferred to PVDF membrane (Bio-rad) already activated by methanol (Merck) for 1 hour at 300 mA. The membrane was blocked for 1 hour at the room temperature with 5% skim milk (Seoul Milk) and then incubated overnight at 4° C. in 5% skim milk containing anti-tyrosinase antibody (Santa Cruz) and anti-β-actin antibody (Santa Cruz). The membrane was then washed with 1×TBST for 10 minutes three times and was incubated for 1 hour at the room temperature in 5% skim milk with HRP-conjugated secondary antibody. The membrane was washed with 1×TBST for 10 minutes and treated with 1×ECL for 1 minute. The tyrosinase and β-actin bands were then imaged using a Chemidoc instrument (Bio-rad).
as §2, with “The level” for “After 72 hours of cp-asiTYR(4)-1 incubation, the level”, “expression by MNT-1 cells after treatment with 1 μM and 3 μM cp-asiRNAs” for “expression”, “the transfected” for “the treated”
The level of tyrosinase protein expression by MNT-1 cells after treatment with 1 μM, 0.6 μM, 0.3 μM and 0.1 μM cp-asiRNAs was determined via western blot. Briefly, the transfected MNT-1 cells were lysed with RIPA buffer (GE). […]

MNT-1 cells [3] = assay: Melanin content assay in treated MNT-1 cells; assay type: cell-based, human; conditions: 1 μM, 72 hours
Description: as §1
(§3) MNT-1 cells treated with cp-asiTYR(4)-1 as described above were tested for melanin content. After 72 hours of incubation in the presence of cp-asiTYR, the MNT-1 cells were collected, lysed with RIPA buffer (GE) and centrifuged at 13000 rpm. The resulting melanin pellet was dissolved in 100 μL of 1N NaOH (containing 10% DMSO) at 85° C. for 15 minutes and light absorption and melanin production were measured.
as §3, with “cp-asiTYR(4) 21AS-1 or cp-asiTYR(4) 19AS-5” for “cp-asiTYR(4)-1”
MNT-1 cells were cultured in Minimum Essential Media (Welgene) containing 20% fetal bovine serum (Gibco), 100 μg/ml penicillin/streptomycin, 10% 200 mM HEPES (Welgene) and 10% Dulbecco's modified Eagle's medium (Welgene). One day prior to treatment, 6.5×10^4MNT-1 cells were seeded in 12-well plates. Four hours prior to treatment, the cell media was replaced with 900 μL of FBS-containing media. The PF6-complexed asiRNA or lasiRNA was added to the cells and the cells were incubated for 24 hours, at which point the media was replaced. Tyrosinase mRNA levels were measured using real-time RT-PCR 24 hours after media replacement.
To test the treated MNT-1 cells for tyrosinase protein expression and melanin production, western blot and melanin content assays were performed as described above 48 hours after media replacement.

tyrosinase mRNA = assay: Tyrosinase mRNA level in reconstructed skin model MEL-300-B by real-time PCR; assay type: cell-based; conditions: 5 μM every day for 13 days, day 14, FIG. 14(d)
Description: (§4) Tyrosinase expression and melanin level was analyzed in an cp-asiTYR#4-1 treated 3-D skin model. MEL-300-B (MatTek), a reconstructed skin model, was used in this study. MEL-300-B was stabilized in EPI-100-NMM-113 media 24 hours before treatment with cp-asiTYR#4-1. […] MEL-300-B samples were treated with cp-asiTYR#4-1 every day for 13 days (final concentration=5 μM) by adding cp-asiTYR#4-1 directly to the media. As a control, other MEL-300-B samples were treated with kojic acid (Sigma, 2% final) as depicted in FIG. 14(a). The samples were harvested at day 14 and the melanocytes in the sample were analyzed using light microscopy. […] Melanin level in each sample was analyzed using Fontana-Massons staining.
In order to analyze mRNA level at day 14, samples were harvested in Isol-RNA lysis reagent (5PRIME) and homogenized by using a homogenizer (IKA). Total RNA from the each sample was extracted. For each sample, 500 ng of the extracted RNA was used for cDNA synthesis using the high-capacity cDNA reverse transcription kit (Applied Biosystems) according to the manufacturer's instructions. Quantitative real-time PCR was then performed using the StepOne real-time PCR system (Applied Biosystems). Amplification of the tyrosinase cDNA was detected using a power SYBR green PCR master Mix (Applied Biosystems). GAPDH was amplified as an internal control.

[4] = test system: MEL-300-B reconstructed skin model; assay: Melanin content assay in reconstructed skin model MEL-300-B; assay type: cell-based; conditions: 5 μM every day for 13 days, day 14, FIG. 14(f)
Description: as §4
To test melanin content, samples were harvested at day 14, lysed with RIPA buffer (GE) and centrifuged at 13000 rpm. The resulting pellet was dissolved in 100 μL of 1N NaOH (containing 10% DMSO) at 85° C. for 15 minutes and light absorption and melanin production were measured.

MNT-1 cells [5] = assay: Color change (lightening) of MNT-1 cell pellets; assay type: cell-based, human; conditions: 1 μM or 3 μM, 72 hours, FIG. 5
Description: as §1
After 72 hours, cells were pelleted and the color change of the cells was observed.

MNT-1 cells [6] = assay: Cytotoxicity (LDH, CytoTox96) and cell viability (CCK-8) in MNT-1 cells; assay type: cell-based, human; conditions: 24 hours, LDH and CCK-8 assays, FIG. 6
Description: as §5

tyrosinase protein [7] = assay: Western blot of tyrosinase protein in reconstructed skin model MEL-300-B; assay type: cell-based; conditions: 5 μM every day for 13 days, day 14, FIG. 14e
Description: as §4
Protein level analysis was conducted as using western blot. Harvested samples in RIPA buffer (GE) were homogenized by using homogenizer (IKA) and protein from the each sample was obtained. Fifteen micrograms of the total protein extract were loaded onto a 12% SDS-PAGE gel and electrophoresed at 120 V. After electrophoresis, the proteins were transferred to PVDF membrane (Bio-rad) that had been previously activated with methanol (Merck) for 1 hour at 300 mA. The membrane was blocked for 1 hour at the room temperature with 5% skim milk (Seoul Milk) and then incubated overnight at 4° C. in 5% skim milk containing anti-tyrosinase antibody (Santa Cruz) and anti-β-actin antibody (Santa Cruz). […]

HaCaT cells [8] = test system: HaCaT cells
Description: as §5

[9] = test system: MEL-300-B reconstructed skin model; assay: Fontana-Massons staining for melanin in reconstructed skin model MEL-300-B; assay type: cell-based; conditions: 5 μM every day for 13 days, day 14, Fontana-Massons staining
Description: as §4

[10] = test system: MEL-300-B reconstructed skin model; assay: Light microscopy of melanocytes in reconstructed skin model MEL-300-B; assay type: cell-based; conditions: 5 μM every day for 13 days, day 14, light microscopy
Description: as §4

## OC[C@H]1O[C@@H](Oc2ccc(O)cc2)[C@H](O)[C@@H](O)[C@@H]1O [arbutin]
HaCaT cells [1]
  cytotoxicity / cell viability: cytotoxicity was observed

## Oc1ccc(O)cc1 [hydroquinone]
HaCaT cells [1]
  cytotoxicity / cell viability: cytotoxicity was observed

## cp-asiTYR(4) 19AS-5: S: GCUGACAGGAGAUG*A*A*cholesterol (SEQ ID NO: 131); AS: UUCAUCUCCUGUCAG*C*mU*mU*mC (SEQ ID NO: 160) (sense rGrCrUrGrArCrArGrGrArGrArUrG*rA*rA*{Chol}; antisense rUrUrCrArUrCrUrCrCrUrGrUrCrArG*rC*mU*mU*mC; siRNA)
Tyrosinase protein [2]; 1 μM and 3 μM, FIG. 8
  relative inhibitory activity on tyrosinase protein: slightly higher inhibitory activity than cp-asiTYR(4) 21AS-1
MNT-1 cells [3]; FIG. 9
  inhibition in melanin production: ~50%
  inhibition in melanin production compared with arbutin: higher than the inhibition shown in MNT-1 cells treated with 2 mM arbutin

## cp-asiTYR(4)-1: S: GCUGACAGGAGAUG*A*A*cholesterol (SEQ ID NO: 131); AS: UUCAUCUCCUGUCAGCU*U*C*U*G (SEQ ID NO: 132) (sense GCUGACAGGAGAUGAA; antisense UUCAUCUCCUGUCAGCUUCUG; siRNA; sense: linkages o13 s2 (s phosphorothioate, o phosphodiester), 3' *{Chol}, sugars by position and methylation of C not given here; antisense: linkages o16 s4 (s phosphorothioate, o phosphodiester), sugars by position and methylation of C not given here)
Tyrosinase mRNA
  level of tyrosinase mRNA: reduced the level of tyrosinase mRNA
[4]
  melanin level (melanin content): reduced melanin level
MNT-1 cells [5]
  color of treated cells: lighter than untreated MNT-1 control cells (NT), hydroquinone treated cells and arbutin treated cells
MNT-1 cells [6]
  cytotoxicity / cell viability: no cytotoxicity or loss of cell viability was observed
Tyrosinase protein [7]
  tyrosinase protein level: potent knockdown of tyrosinase protein
HaCaT cells [8]
  cytotoxicity / cell viability: no cytotoxicity or loss of cell viability was observed
[9]
  level of melanin: reduced the level of melanin
[10]
  level of melanocytes: reduced the level of melanocytes
Tyrosinase protein [2]; 1 μM or 3 μM, 72 hours, without transfection vehicle, FIG. 3
  tyrosinase protein inhibition: ≥ 70%
Tyrosinase protein [2]; 1 μM to 0.1 μM, FIG. 10
  relative inhibitory activity on tyrosinase protein: slightly higher inhibitory activity than cp-asiTYR(4) 19AS-7
Tyrosinase protein [2]; 72 hours, western blot, FIG. 3
  tyrosinase inhibition ability compared with other tyrosinase inhibitors: higher efficiency in the tyrosinase inhibition ability than other tyrosinase inhibitors such as Hydroquinone and Arbutin
MNT-1 cells [3]; FIG. 4
  inhibition in melanin production compared with hydroquinone and arbutin: higher than when treated with compounds commonly used for melanin production, including hydroquinone (20 μM) and arbutin (2 mM)
MNT-1 cells [3]; FIG. 9
  inhibition in melanin production: ~50%
  inhibition in melanin production compared with arbutin: higher than the inhibition shown in MNT-1 cells treated with 2 mM arbutin
MNT-1 cells [3]; without transfection vehicle, FIG. 4
  inhibition in melanin production: greater than 60%
